Results taken from patent US5298508A, “Irreversible inhibitors of adenosine receptors” (priority 1992, dated 1994).
Like-named read-outs stand apart in the source and are kept apart here.

Tests used:
[1] = target: T1, A1 adenosine receptors (Rattus norvegicus, UniProt P25099); test: inhibition of binding of [3H]N6-phenylisopropyladenosine ([3H]PIA) to A1 adenosine receptors in rat cerebral cortex membranes
T1 construct: A1 adenosine receptors in rat cerebral cortex membranes; from tissue; host or cells: rat cerebral cortex membranes
T1 sequence (P25099 1-326): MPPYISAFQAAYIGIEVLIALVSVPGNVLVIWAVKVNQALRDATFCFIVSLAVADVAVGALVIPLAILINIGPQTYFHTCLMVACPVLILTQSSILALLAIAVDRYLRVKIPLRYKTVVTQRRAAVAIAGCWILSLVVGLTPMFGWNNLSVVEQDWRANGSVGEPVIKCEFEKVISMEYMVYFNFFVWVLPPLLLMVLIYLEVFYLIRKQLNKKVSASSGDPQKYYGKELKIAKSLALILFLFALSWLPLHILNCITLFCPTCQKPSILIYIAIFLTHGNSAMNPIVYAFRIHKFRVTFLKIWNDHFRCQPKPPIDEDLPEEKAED
Method: Ukena et al., FEBS Letters 209;122, 1986.
For the biochemical assays, stock solutions of xanthines in the millimolar concentration range in dimethylsulfoxide were prepared and stored frozen. The solutions were warmed to 50° C. prior to dilution in aqueous medium. […] Acad. Sci. USA, 83:4089, 1986. Inhibition of binding by a range of concentrations of a xanthine or adenosine derivative was assessed in triplicate in at least three separate experiments.

[2] = target: T2, central A1 receptors (Rattus norvegicus, UniProt P25099); type: binding
T2 construct: A1 -adenosine receptors in rat brain membranes; from tissue; host or cells: rat brain membranes
T2 sequence (P25099 1-326): T1 sequence (P25099 1-326)

[3] = target: T3, central A1 receptors (Bos taurus, UniProt P28190); test: inhibition of radioligand binding at central A1 receptors, calf brain membranes
T3 construct: A1 -adenosine receptors in membranes form calf brain; from tissue; host or cells: calf brain membranes
T3 sequence (P28190 1-326): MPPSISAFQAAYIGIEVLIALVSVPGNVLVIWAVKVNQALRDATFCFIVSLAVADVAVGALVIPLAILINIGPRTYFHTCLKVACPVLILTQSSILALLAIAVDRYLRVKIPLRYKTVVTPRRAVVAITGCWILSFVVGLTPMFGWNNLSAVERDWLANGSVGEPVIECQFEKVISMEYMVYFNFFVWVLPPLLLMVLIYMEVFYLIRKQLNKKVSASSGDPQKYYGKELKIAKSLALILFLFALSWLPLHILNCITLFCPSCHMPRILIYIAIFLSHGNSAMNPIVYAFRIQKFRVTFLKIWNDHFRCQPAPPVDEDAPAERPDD
Source text: ^b against [^125 I]APNEA (i.e. N^6
^b against [^125 I]APNEA;
The compounds, at concentrations relative to the Ki -values obtained, were screened for the ability to inhibit competitive binding of the radioligands [^3 H]PIA to rat brain membranes and [^3 H]XAC to bovine brain membranes, a shown in Table 1.

[4] = Table I, rat, against [3H]PIA, read-out: Ki at central A1 receptors, rat
[5] = Table I, calf, against [125I]APNEA, read-out: Ki at central A1 receptors, calf
[6] = read-out: Ki at central A1 receptors, rat
[7] = read-out: Ki at central A1 receptors, calf

For `CCCn1c(=O)c2[nH]c(-c3ccc(OCC(=O)ON4C(=O)CCC4=O)cc3)nc2n(CCC)c1=O` [Compound 1], the Ki [1, 4] was 9 ± 0.7 nM, the inhibition at 0.5 µM ([2]; read-out: % inhib (conc)) was 0% and the “irreversible inhibition of central A1-adenosine receptors” value ([2]; result in words) was “only the longest of the series, SUS-XAC, 21, inhibits binding irreversibly”.
`CCCn1c(=O)c2[nH]c(-c3ccc(OCC(=O)NCC=O)cc3)nc2n(CCC)c1=O` [Compound 2b] was tested, and the Ki [3, 5] was 1.5 ± 0.1 nM, the Ki [1, 4] was 266 ± 40 nM and the “% inhib (conc)” value ([2]; 500 nM, one hour incubation and washout, rat brain membranes, against [125I]APNEA) was 0%.
Molecule `CCCn1c(=O)c2[nH]c(-c3ccc(OCC(=O)NCCN)cc3)nc2n(CCC)c1=O` [Compound 3, reference compound] has a Ki [3, 5] of 0.2 nM and a Ki [1, 4] of 1.1 ± 0.05 nM.
For `CCCn1c(=O)c2[nH]c(-c3ccc(OCC(=O)NCCNC(=S)Nc4cccc(N=C=S)c4)cc3)nc2n(CCC)c1=O` [Compound 5b], the Ki [3] was 0.5 nM, the “relative potency in the binding assay, 5b versus 4b” value ([1]; meta versus para isomer) was “more than twice as potent in the binding assay than 4b” and the inhibition at 0.005 µM ([2]; read-out: % inhib (conc)) was 49%. The “potency of irreversible inhibition, meta versus para phenylisothiocyanate” value ([2]; xanthine series, result in words) was “meta-position favored (5b) over the para-position (4b)”.
In the case of `CCCn1c(=O)c2[nH]c(-c3ccc(OCC(=O)NCCNC(=S)Nc4ccc(C)cc4)cc3)nc2n(CCC)c1=O` [Compound 6], the Ki [1, 4] is reported as 16 ± 2.9 nM.
Molecule `CCCn1c(=O)c2nc(-c3ccc(OCC(=O)NCCN=C(S)Nc4ccc(OC)cc4)cc3)[nH]c2n(CCC)c1=O` [Compound 7] has a Ki [1, 4] of 20 nM.
Work on `CCCn1c(=O)c2nc(-c3ccc(OCC(=O)NCCN=C(S)Nc4ccc(F)cc4)cc3)[nH]c2n(CCC)c1=O` [Compound 8] yielded a Ki [1, 6] of 12.8 nM.
`CCCn1c(=O)c2[nH]c(-c3ccc(OCC(=O)NCCNC(=S)Nc4c(F)c(F)c(F)c(F)c4F)cc3)nc2n(CCC)c1=O` [Compound 9] gave a Ki [1, 4] of 9.07 ± 0.9 nM.
With `CCCn1c(=O)c2[nH]c(-c3ccc(OCC(=O)NCCNC(=S)Nc4ccc(Br)cc4)cc3)nc2n(CCC)c1=O` [Compound 10] the Ki [1, 4] was 7.26 ± 0.9 nM.
Work on `CCCn1c(=O)c2nc(-c3ccc(OCC(=O)NCCN=C(S)Nc4ccc([N+](=O)[O-])cc4)cc3)[nH]c2n(CCC)c1=O` [Compound 11] yielded a Ki [1, 6] of 5 nM.
For `CCCn1c(=O)c2nc(-c3ccc(OCC(=O)NCCN=C(S)Nc4ccc(S(=O)(=O)O)cc4)cc3)[nH]c2n(CCC)c1=O` [Compound 12], the Ki [1, 6] was 430 nM.
Molecule `CCCn1c(=O)c2[nH]c(-c3ccc(OCC(=O)NCCNS(=O)(=O)c4cccc(S(=O)(=O)Cl)c4)cc3)nc2n(CCC)c1=O` [Compound 13] has a Ki [1, 4] of 2.5 ± 0.47 nM and an inhibition at 0.1 µM ([2]; read-out: % inhib (conc)) of 20%.
Molecule `CCCn1c(=O)c2[nH]c(-c3ccc(OCC(=O)NCCNS(=O)(=O)c4ccc(C)cc4)cc3)nc2n(CCC)c1=O` [Compound 14] has a Ki [1, 4] of 72 ± 7.2 nM.
`CCCn1c(=O)c2[nH]c(-c3ccc(OCC(=O)NCCNC(=O)Cc4ccc(NC(=O)OC(C)(C)C)cc4)cc3)nc2n(CCC)c1=O` [Compound 15c] showed a Ki [1, 4] of 53 ± 12 nM.
With `CCCn1c(=O)c2[nH]c(-c3ccc(OCC(=O)NCCNC(=O)Cc4ccc(N)cc4)cc3)nc2n(CCC)c1=O` [Compound 15d] the Ki [1, 4] was 40 nM.
`CCCn1c(=O)c2[nH]c(-c3ccc(OCC(=O)NCCNC(=O)Cc4ccc(NC(=S)Nc5ccc(N=C=S)cc5)cc4)cc3)nc2n(CCC)c1=O` [Compound 15e] showed a Ki [1] of 30 nM and an inhibition at 0.1 µM ([2]; read-out: % inhib (conc)) of 10%.
`CCCn1c(=O)c2[nH]c(-c3ccc(OCC(=O)NCCNC(=O)CNC(=S)Nc4ccc(N=C=S)cc4)cc3)nc2n(CCC)c1=O` [Compound 16c] was tested, and the Ki [1, 4] was 6.85 ± 1.14 nM, the inhibition at 0.5 µM ([2]; read-out: % inhib (conc)) was 50% and the “irreversible inhibition of central A1-adenosine receptors” value ([2]; result in words) was “behave pharmacologically as irreversible inhibitors of central A1 -adenosine receptors”.
For `CCCn1c(=O)c2[nH]c(-c3ccc(OCC(=O)NCCNC(=O)CCCCC(C)=O)cc3)nc2n(CCC)c1=O` [Compound 17], the Ki [3, 7] was 3.2 nM, the Ki [1, 4] was 44 ± 9 nM and the inhibition at 0.5 µM ([2]; read-out: % inhib (conc)) was 0%.
Molecule `CCCn1c(=O)c2[nH]c(-c3ccc(OCC(=O)NCCNC(=O)CBr)cc3)nc2n(CCC)c1=O` [Compound 18, 8-[2-[4-bromoacetylaminoethyl[amino[carbonyl[methyloxyphenyl]]]]]-1,3-dipropylxanthine] has a Ki [1, 4] of 17.6 ± 1.5 nM.
`CCCn1c(=O)c2[nH]c(-c3ccc(OCC(=O)NCCNC(=O)c4ccc(CBr)cc4)cc3)nc2n(CCC)c1=O` [Compound 19] was tested, and the Ki [3, 7] was 6.9 nM and the Ki [1, 4] was 11.5 ± 1.5 nM.
In the case of `CCCn1c(=O)c2[nH]c(-c3ccc(OCC(=O)NCCNC(=O)CCC(=O)ON4C(=O)CCC4=O)cc3)nc2n(CCC)c1=O` [Compound 20b], the Ki [1, 4] is reported as 20 ± 4.5 nM, the inhibition at 0.5 µM ([2]; read-out: % inhib (conc)) is reported as 0% and the “irreversible inhibition of central A1-adenosine receptors” value ([2]; result in words) is reported as “only the longest of the series, SUS-XAC, 21, inhibits binding irreversibly”.
`CCCn1c(=O)c2[nH]c(-c3ccc(OCC(=O)NCCNC(=O)CCCCCCC(=O)ON4C(=O)CCC4=O)cc3)nc2n(CCC)c1=O` [Compound 21] showed a Ki [3, 5] of 15.8 nM, a Ki [1, 4] of 3.69 ± 0.71 nM and an inhibition at 0.5 µM ([2]; read-out: % inhib (conc)) of 40%. For the same molecule, the “irreversible inhibition of central A1-adenosine receptors” value ([2]; result in words) was “inhibits binding irreversibly”.
In the case of `CCCn1c(=O)c2[nH]c(-c3ccc(OCC(=O)NCCNC(=O)CCSSc4ccccn4)cc3)nc2n(CCC)c1=O` [Compound 22], the Ki [1, 4] is reported as 23.8 ± 3.51 nM.
For `CCCn1c(=O)c2nc(-c3ccc(OCC(=O)NCCNC(=O)CCCN4C(=O)C=CC4=O)cc3)[nH]c2n(CCC)c1=O` [Compound 23], the Ki [1, 6] was 63 nM.
In the case of `O=C(Cc1ccc(Nc2ncnc3c2ncn3[C@@H]2O[C@H](CO)[C@@H](O)[C@H]2O)cc1)ON1C(=O)CCC1=O` [Compound 24], the Ki ([1]; Table II, rat, against [3H]PIA, read-out: Ki at central A1 receptors, rat) is reported as 8.37 ± 0.73 nM.
`O=C(Cc1ccc(Nc2ncnc3c2ncn3[C@@H]2O[C@H](CO)[C@@H](O)[C@H]2O)cc1)Nc1ccc(CC(=O)ON2C(=O)CCC2=O)cc1` [Compound 25] showed a Ki [1, 6] of 9.6 ± 1.44 nM.
In the case of `NCCNC(=O)Cc1ccc(NC(=O)Cc2ccc(Nc3ncnc4c3ncn4[C@@H]3O[C@H](CO)[C@@H](O)[C@H]3O)cc2)cc1` [Compound 26a, reference compound], the Ki [3] is reported as 0.2 nM.
For `O=C(Cc1ccc(NC(=O)Cc2ccc(Nc3ncnc4c3ncn4[C@@H]3O[C@H](CO)[C@@H](O)[C@H]3O)cc2)cc1)NCCN=C=S` [Compound 26b], the Ki [3] was 2.5 nM and the Ki [1] was 4 nM.
With `O=C(Cc1ccc(NC(=O)Cc2ccc(Nc3ncnc4c3ncn4[C@@H]3O[C@H](CO)[C@@H](O)[C@H]3O)cc2)cc1)NCCNC(=S)Nc1ccc(N=C=S)cc1` [Compound 27] the Ki [3] was 0.1 nM, the Ki [1] was 0.47 ± 0.13 nM and the inhibition at 0.05 µM ([2]; read-out: % inhib (conc)) was over 80%. For the same molecule, the “irreversible inhibition of central A1-adenosine receptors” value ([2]; result in words) was “behave pharmacologically as irreversible inhibitors of central A1 -adenosine receptors”.
`Cc1ccc(NC(=S)NCCNC(=O)Cc2ccc(NC(=O)Cc3ccc(Nc4ncnc5c4ncn5[C@@H]4O[C@H](CO)[C@@H](O)[C@H]4O)cc3)cc2)cc1` [Compound 29] showed a Ki [1, 6] of 3.72 ± 0.44 nM.
`COc1ccc(NC(=S)NCCNC(=O)Cc2ccc(NC(=O)Cc3ccc(Nc4ncnc5c4ncn5[C@@H]4O[C@H](CO)[C@@H](O)[C@H]4O)cc3)cc2)cc1` [Compound 30] showed a Ki [1, 6] of 5 nM.
`O=C(Cc1ccc(NC(=O)Cc2ccc(Nc3ncnc4c3ncn4[C@@H]3O[C@H](CO)[C@@H](O)[C@H]3O)cc2)cc1)NCCNC(=S)Nc1ccc(F)cc1` [Compound 31a] showed a Ki [1, 6] of 5 nM.
With `O=C(Cc1ccc(NC(=O)Cc2ccc(Nc3ncnc4c3ncn4[C@@H]3O[C@H](CO)[C@@H](O)[C@H]3O)cc2)cc1)NCCNC(=S)Nc1ccccc1F` [Compound 31b] the Ki [1, 6] was 10.7 nM.
Molecule `O=C(Cc1ccc(NC(=O)Cc2ccc(Nc3ncnc4c3ncn4[C@@H]3O[C@H](CO)[C@@H](O)[C@H]3O)cc2)cc1)NCCNC(=S)Nc1c(F)c(F)c(F)c(F)c1F` [Compound 32] has a Ki [1, 6] of 1.64 ± 0.47 nM.
`O=C(Cc1ccc(NC(=O)Cc2ccc(Nc3ncnc4c3ncn4[C@@H]3O[C@H](CO)[C@@H](O)[C@H]3O)cc2)cc1)NCCNC(=S)Nc1ccc(Br)cc1` [Compound 33] gave a Ki [1, 6] of 1.19 ± 0.14 nM.
For `O=C(Cc1ccc(NC(=O)Cc2ccc(Nc3ncnc4c3ncn4[C@@H]3O[C@H](CO)[C@@H](O)[C@H]3O)cc2)cc1)NCCNC(=S)Nc1ccc([N+](=O)[O-])cc1` [Compound 34], the Ki [1, 6] was 1 nM.
With `O=C(Cc1ccc(NC(=O)Cc2ccc(Nc3ncnc4c3ncn4[C@@H]3O[C@H](CO)[C@@H](O)[C@H]3O)cc2)cc1)NCCNC(=S)Nc1ccc(S(=O)(=O)O)cc1` [Compound 35] the Ki [1, 6] was 100 nM.
`O=C(CBr)NCCNC(=O)Cc1ccc(NC(=O)Cc2ccc(Nc3ncnc4c3ncn4[C@@H]3O[C@H](CO)[C@@H](O)[C@H]3O)cc2)cc1` [Compound 36] gave a Ki [1, 6] of 5 nM.
